Results published in ChEMBL document CHEMBL1201862, “PubChem BioAssay data set” (2004).
“And” between values parts separate entries of the source, which are not always exact repeats. Equal entries are not always repeated.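 A five-concentration, 48-hour dose response in 96-well plates underlies each endpoint, interpolated linearly between surrounding concentrations. Here, GI50 denotes the concentration required for 50% inhibition of growth.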 The source made the active and inactive calls. Rule as the data show it: active = GI50 up to about 1.1 µM and inactive = higher.

Columns and labels:
Assay in all cases: growth of human tumour cells (NCI), 48 h
UACC-257 = test system: UACC-257
HCT-15 = test system: HCT-15
ACHN = test system: ACHN
HOP-92 = test system: HOP-92
MOLT-4 = test system: MOLT-4
RPMI-8226 = test system: RPMI-8226
OVCAR-5 = test system: OVCAR-5
LOX IMVI = test system: LOX IMVI
U-251 = test system: U-251
A549 = test system: A549
SK-MEL-2 = test system: SK-MEL-2
K562 = test system: K562
HCT-116 = test system: HCT-116
CAKI-1 = test system: CAKI-1
UO-31 = test system: UO-31
NCI/ADR-RES = test system: NCI/ADR-RES
Hs-578T = test system: Hs-578T
PC-3 = test system: PC-3

C1=c2ccccc2=C2C(=C(c3ccccc3)C(c3ccccc3)=NN2c2ccccc2)S1 was tested, and the GI50 (UACC-257) was > 100 µM (inactive), the GI50 (HCT-15) was > 100 µM and the GI50 (ACHN) was > 100 µM (inactive). For the same compound, the GI50 (HOP-92) was > 100 µM (inactive), the GI50 (MOLT-4) was > 100 µM (inactive) and the GI50 (RPMI-8226) was > 100 µM (inactive). The GI50 (OVCAR-5) was > 100 µM (inactive), the GI50 (LOX IMVI) was > 100 µM (inactive) and the GI50 (U-251) was 46.7 µM (inactive). The GI50 (A549) was > 100 µM (inactive), the GI50 (SK-MEL-2) was > 100 µM (inactive) and the GI50 (K562) was > 100 µM (inactive). The GI50 (HCT-116) was > 100 µM (inactive), the GI50 (CAKI-1) was > 100 µM (inactive) and the GI50 (UO-31) was > 100 µM (inactive).
With CCCCCCCCCCCc1c(O)c(=O)c2c(oc3c(=O)c(CCCCCCCCCCC)c(O)c(=O)c3n2-c2ccc(N(C)C)cc2)c1=O the GI50 (UACC-257) was 20 µM (inactive), the GI50 (HCT-15) was 18.6 µM and the GI50 (ACHN) was 20.7 µM (inactive). The GI50 (MOLT-4) was > 100 µM (inactive), the GI50 (RPMI-8226) was 91.2 µM (inactive) and the GI50 (OVCAR-5) was 23.8 µM (inactive). For the same compound, the GI50 (LOX IMVI) was 24.2 µM (inactive), the GI50 (U-251) was 21.4 µM (inactive) and the GI50 (A549) was 23.6 µM (inactive). The GI50 (SK-MEL-2) was 21.7 µM (inactive), the GI50 (K562) was 52.8 µM (inactive) and the GI50 (HCT-116) was 17.6 µM (inactive). The GI50 (CAKI-1) was 15.7 µM (inactive).
In the case of n1onc2c1NC1Nc3nonc3NC1N2 (stereo unspecified), the GI50 (HCT-15) is reported as > 100 µM, the GI50 (ACHN) is reported as > 100 µM (inactive) and the GI50 (HOP-92) is reported as > 100 µM (inactive). The GI50 (NCI/ADR-RES) was > 100 µM (inactive), the GI50 (MOLT-4) was > 100 µM (inactive) and the GI50 (Hs-578T) was > 100 µM (inactive). The GI50 (RPMI-8226) was > 100 µM (inactive), the GI50 (OVCAR-5) was > 100 µM (inactive) and the GI50 (LOX IMVI) was > 100 µM (inactive). For the same compound, the GI50 (U-251) was > 100 µM (inactive), the GI50 (A549) was > 100 µM (inactive) and the GI50 (PC-3) was > 100 µM (inactive). For the same compound, the GI50 (K562) was > 100 µM (inactive), the GI50 (HCT-116) was > 100 µM (inactive) and the GI50 (CAKI-1) was > 100 µM (inactive). The GI50 (UO-31) was > 100 µM (inactive).
CCCCC[C@@H]1CCCC2NC(CCCCCO[Si](c3ccccc3)(c3ccccc3)C(C)(C)C)CCC21 (stereo partly specified) was tested, and the GI50 (UACC-257) was 15.2 µM (inactive), the GI50 (HCT-15) was 11.7 µM and the GI50 (ACHN) was 13.5 µM (inactive). For the same compound, the GI50 (HOP-92) was 10.1 µM (inactive), the GI50 (MOLT-4) was 12.6 µM (inactive) and the GI50 (RPMI-8226) was 5.31 µM (inactive). The GI50 (OVCAR-5) was 20.1 µM (inactive), the GI50 (LOX IMVI) was 12.2 µM (inactive) and the GI50 (U-251) was 14.1 µM (inactive). The GI50 (A549) was 17.5 µM (inactive), the GI50 (SK-MEL-2) was 15.1 µM (inactive) and the GI50 (K562) was 5.25 µM (inactive). For the same compound, the GI50 (HCT-116) was 11.5 µM (inactive), the GI50 (CAKI-1) was 15.4 µM (inactive) and the GI50 (UO-31) was 13.4 µM (inactive).
For CN(C)c1nc(Oc2nc(N(C)C)nc(N(C)C)n2)nc(N(C)C)n1, the GI50 (UACC-257) was 56.5 µM (inactive), the GI50 (HCT-15) was > 100 µM and the GI50 (ACHN) was > 100 µM (inactive). For the same compound, the GI50 (HOP-92) was > 100 µM (inactive), the GI50 (MOLT-4) was > 100 µM (inactive) and the GI50 (RPMI-8226) was 63.5 µM (inactive). For the same compound, the GI50 (OVCAR-5) was > 100 µM (inactive), the GI50 (LOX IMVI) was > 100 µM (inactive) and the GI50 (U-251) was 75.2 µM (inactive). For the same compound, the GI50 (A549) was 67 µM (inactive), the GI50 (SK-MEL-2) was > 100 µM (inactive) and the GI50 (K562) was 59.2 µM (inactive). The GI50 (HCT-116) was > 100 µM (inactive), the GI50 (CAKI-1) was > 100 µM (inactive) and the GI50 (UO-31) was > 100 µM (inactive).
With C=CCc1cc(OC)c2c(c1)C(O)CC(c1ccc(OC)c(OC)c1)O2 (stereo unspecified) the GI50 (UACC-257) was 72.4 µM (inactive), the GI50 (HCT-15) was > 100 µM and the GI50 (ACHN) was > 100 µM (inactive). The GI50 (HOP-92) was 20.6 µM (inactive), the GI50 (MOLT-4) was 38.6 µM (inactive) and the GI50 (OVCAR-5) was > 100 µM (inactive). For the same compound, the GI50 (U-251) was > 100 µM (inactive), the GI50 (A549) was > 100 µM (inactive) and the GI50 (SK-MEL-2) was > 100 µM (inactive). The GI50 (K562) was 16.3 µM (inactive), the GI50 (HCT-116) was > 100 µM (inactive) and the GI50 (CAKI-1) was 73.3 µM (inactive). For the same compound, the GI50 (UO-31) was > 100 µM (inactive).
With O=C(CCCCCCCCC(=O)OCCCn1cc(C(=O)NC(=O)OCc2ccccc2)c(=O)[nH]c1=O)OCCCn1cc(C(=O)NC(=O)OCc2ccccc2)c(=O)[nH]c1=O the GI50 (UACC-257) was > 100 µM (inactive), the GI50 (HCT-15) was > 100 µM and the GI50 (ACHN) was > 100 µM (inactive). For the same compound, the GI50 (HOP-92) was > 100 µM (inactive), the GI50 (MOLT-4) was > 100 µM (inactive) and the GI50 (RPMI-8226) was > 100 µM (inactive). For the same compound, the GI50 (OVCAR-5) was > 100 µM (inactive), the GI50 (LOX IMVI) was > 100 µM (inactive) and the GI50 (U-251) was > 100 µM (inactive). For the same compound, the GI50 (A549) was > 100 µM (inactive), the GI50 (SK-MEL-2) was > 100 µM (inactive) and the GI50 (K562) was > 100 µM (inactive). The GI50 (HCT-116) was > 100 µM (inactive), the GI50 (CAKI-1) was > 100 µM (inactive) and the GI50 (UO-31) was > 100 µM (inactive).
In the case of CC(O)C1OC(n2ccc(=O)[nH]c2=O)CC1n1cncn1 (stereo unspecified), the GI50 (UACC-257) is reported as > 100 µM (inactive), the GI50 (HCT-15) is reported as > 100 µM and the GI50 (ACHN) is reported as > 100 µM (inactive). For the same compound, the GI50 (MOLT-4) was > 100 µM (inactive), the GI50 (RPMI-8226) was > 100 µM (inactive) and the GI50 (OVCAR-5) was > 100 µM (inactive). The GI50 (LOX IMVI) was > 100 µM (inactive), the GI50 (U-251) was > 100 µM (inactive) and the GI50 (A549) was > 100 µM (inactive). The GI50 (SK-MEL-2) was > 100 µM (inactive), the GI50 (K562) was > 100 µM (inactive) and the GI50 (HCT-116) was > 100 µM (inactive). The GI50 (CAKI-1) was > 100 µM (inactive) and the GI50 (UO-31) was > 100 µM (inactive) and 98.9 µM (inactive).
O=C(O)C12C3CCCC1C2CC3 (stereo unspecified) was tested, and the GI50 (UACC-257) was > 100 µM (inactive), the GI50 (HCT-15) was > 100 µM and the GI50 (ACHN) was > 100 µM (inactive). For the same compound, the GI50 (HOP-92) was > 100 µM (inactive), the GI50 (MOLT-4) was > 100 µM (inactive) and the GI50 (RPMI-8226) was > 100 µM (inactive). The GI50 (OVCAR-5) was > 100 µM (inactive), the GI50 (LOX IMVI) was > 100 µM (inactive) and the GI50 (U-251) was > 100 µM (inactive). The GI50 (A549) was > 100 µM (inactive), the GI50 (SK-MEL-2) was > 100 µM (inactive) and the GI50 (K562) was > 100 µM (inactive). For the same compound, the GI50 (HCT-116) was > 100 µM (inactive), the GI50 (CAKI-1) was > 100 µM (inactive) and the GI50 (UO-31) was > 100 µM (inactive).
